Our source for the EC50 values is patent publication US8889677B2, “Substituted triazoles useful as mGlu5 receptor modulators” (Boehringer Ingellheim International GmbH, priority 2012, dated 2014).

pEC50: −log10 of the molar value.

The experiment deals with T1, human recombinant mGluR5 (Homo sapiens, UniProt P41594).
T1 construct: expressed in transfected cells; host or cells: HEK 293 cell line cultured with tetracycline, hygromycin and geneticin; tetracycline removed 3-7 days before the assay
T1 sequence (P41594 21-1212): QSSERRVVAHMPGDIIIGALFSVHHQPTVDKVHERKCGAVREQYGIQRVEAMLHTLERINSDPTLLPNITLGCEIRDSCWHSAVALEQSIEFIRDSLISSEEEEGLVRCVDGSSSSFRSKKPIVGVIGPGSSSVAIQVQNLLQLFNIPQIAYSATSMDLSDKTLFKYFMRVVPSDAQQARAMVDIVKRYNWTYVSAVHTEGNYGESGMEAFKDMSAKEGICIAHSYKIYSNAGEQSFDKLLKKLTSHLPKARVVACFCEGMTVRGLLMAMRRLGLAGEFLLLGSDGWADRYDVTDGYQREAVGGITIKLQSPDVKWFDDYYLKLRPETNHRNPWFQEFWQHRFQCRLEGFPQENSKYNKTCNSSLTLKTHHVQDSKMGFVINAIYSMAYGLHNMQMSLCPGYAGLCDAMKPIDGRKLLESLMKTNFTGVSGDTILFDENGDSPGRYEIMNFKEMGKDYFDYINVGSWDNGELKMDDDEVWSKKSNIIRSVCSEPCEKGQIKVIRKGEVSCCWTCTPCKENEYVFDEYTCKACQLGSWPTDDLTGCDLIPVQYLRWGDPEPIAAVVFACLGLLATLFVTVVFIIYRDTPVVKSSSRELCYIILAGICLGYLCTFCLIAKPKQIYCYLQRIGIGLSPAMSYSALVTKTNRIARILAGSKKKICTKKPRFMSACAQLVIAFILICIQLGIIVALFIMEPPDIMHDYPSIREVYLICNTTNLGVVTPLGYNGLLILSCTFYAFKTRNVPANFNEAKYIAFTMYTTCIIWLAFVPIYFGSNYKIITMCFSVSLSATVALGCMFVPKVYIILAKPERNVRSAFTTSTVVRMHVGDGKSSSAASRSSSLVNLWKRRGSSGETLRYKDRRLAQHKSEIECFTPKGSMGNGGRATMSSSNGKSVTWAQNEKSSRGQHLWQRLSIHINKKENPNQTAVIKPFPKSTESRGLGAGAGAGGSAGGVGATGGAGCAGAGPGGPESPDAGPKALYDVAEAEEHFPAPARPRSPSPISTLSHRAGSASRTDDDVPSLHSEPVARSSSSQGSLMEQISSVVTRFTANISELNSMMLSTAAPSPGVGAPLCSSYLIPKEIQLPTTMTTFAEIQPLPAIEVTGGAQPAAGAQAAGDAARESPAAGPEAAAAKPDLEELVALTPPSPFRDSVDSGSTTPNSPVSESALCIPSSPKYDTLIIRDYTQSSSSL
In words: positive modulation of mGluR5, calcium based FLIPR assay in HEK 293 cells. The note with it: HEK 293 cell line expressing human recombinant mGluR5; EC50 of the modulation of the glutamate response (glutamate approx. 5% basal stimulation); peak height of Ca release fluorescence signal. In outline: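 Potentiation EC50 derived by nonlinear fit of peak calcium fluorescence after a near-5%-maximal glutamate challenge, following 5 min compound exposure (intrinsic activity also recorded). Dye-loaded recombinant human mGluR5 HEK 293 cells in Ringer solution pH 7.4, 1% DMSO; plate controls were vehicle (100%) and 10 μM CDPPB (200%).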
Consider `COc1cccc(N2CCN(C(=O)Cn3nc(-c4ccc(F)cc4)nc3-c3ccc(F)cc3)CC2)n1` [Example 07.02.03.], for which the negative-log EC50 (pEC50) is 6.66.

Consider `COc1ccc(-c2nc(-c3ccc(OC)cc3)n(CC(=O)N3CCN(c4cccc(OC)n4)CC3)n2)cc1` [Example 07.02.15.], for which the pEC50 is 6.17.

Take `Cc1ccnc(N2CCN(C(=O)Cn3nc(-c4ccc(F)cc4)nc3C3CCCCC3)CC2)c1` [Example 07.04.030.]: the pEC50 is 5.85.

Take `O=C(Cn1nc(-c2ccc(F)cc2)nc1-c1ccc(F)cc1)N1CCN(c2cc(Cl)ncn2)CC1` [Example 07.03.09.]: the pEC50 is 6.92.

Turning to `CCc1nc(-c2ccc(F)c(C)c2)nn1CC(=O)N1CCN(c2ccccn2)CC1` [Example 07.04.091.], the pEC50 is 5.96.

For the compound `COc1cccc(-c2nc(-c3ccccc3)n(CC(=O)N3CCN(c4ncccn4)CC3)n2)c1` [Example 07.10.10.], the negative-log EC50 (pEC50) was 7.30.

As to `O=C(Cn1nc(-c2ccc(F)cc2)nc1-c1ccc(F)cc1)N1CCN(c2ccnc(F)c2)CC1` [Example 07.01.05.], the pEC50 was 6.40.

Regarding `Cc1cc(-c2nc(CC(C)C)n(CC(=O)N3CCN(c4ncccn4)CC3)n2)ccc1F` [Example 07.04.108.], the negative logarithm of the EC50 (pEC50) is 6.50.

On to `COc1cc(N2CCN(C(=O)Cn3nc(-c4ccc(F)cc4)nc3-c3ccc(F)c(OC)c3)CC2)ncn1` [Example 07.04.079.], for which the negative-log EC50 (pEC50) is 5.88.

Regarding `Cc1cc(-c2nc(CC(C)C)n(CC(=O)N3CCN(c4ccccn4)CC3)n2)ccc1F` [Example 07.04.106.], the negative-log EC50 (pEC50) was 6.41.

As to `CN(CC1CCOC1)c1cc(N2CCN(C(=O)Cn3nc(-c4ccc(F)cc4)nc3-c3ccc(F)cc3)CC2)ncn1` (stereo not drawn) [Example 07.08.01., 2-(3,5-bis-(4-fluoro-phenyl)-(1,2,4)triazol-1-yl)-1-(4-(6-(methyl-(tetrahydro-furan-3-ylmethyl)-amino)-pyrimidin-4-yl)-piperazin-1-yl)-ethanone], the negative logarithm of the EC50 (pEC50) was 6.70.

Regarding `N#Cc1ccccc1N1CCN(C(=O)Cn2nc(-c3ccc(F)cc3)nc2-c2ccc(F)cc2)CC1` [Example 07.04.007.], the pEC50 is 5.87.

With `COc1ccc(-c2nc(-c3ccc(F)cc3)nn2CC(=O)N2CCN(c3cc(C)ccn3)CC2)cc1` [Example 07.04.041.], the pEC50 was 6.95.

With `COc1ccc(-c2nc(-c3ccccc3)n(CC(=O)N3CCN(c4cc(C)ccn4)CC3)n2)cc1OC` [Example 07.02.20.], the pEC50 is 6.79.

For `CN(C)CCOc1cc(N2CCN(C(=O)Cn3nc(-c4ccc(F)cc4)nc3-c3ccc(F)cc3)CC2)ncn1` [Example 07.07.02.], the pEC50 was 6.01.

Consider `COc1ccc(-c2nc(-c3ccc(OC)cc3)n(CC(=O)N3CCN(c4ccc(C#N)cn4)CC3)n2)cc1` [Example 07.02.13.], for which the pEC50 is 5.89.

As to `Cc1cc(-c2nc(C3CCCCC3C)n(CC(=O)N3CCN(c4ncccn4)CC3)n2)ccc1F` (stereo not drawn) [Example 07.04.135.], the pEC50 was 6.41.

With `O=C(Cn1nc(-c2ccc(F)cc2)nc1-c1ccc(F)cc1)N1CCN(c2ncccc2C(F)(F)F)CC1` [Example 07.02.02.], the negative logarithm of the EC50 (pEC50) is 6.32.

As for `Cc1cccnc1N1CCN(C(=O)Cn2nc(-c3ccc(F)cc3)nc2-c2ccc(F)cc2)CC1` [Example 07.02.04.], the negative-log EC50 (pEC50) was 5.97.

In the case of `O=C(Cn1nc(-c2ccccc2)nc1C1=CCCCC1)N1CCN(c2ncccn2)CC1` [Example 07.10.26.], the pEC50 is 6.27.

Turning to `CCCCCc1nc(-c2ccc(F)c(C)c2)nn1CC(=O)N1CCN(c2ccccn2)CC1` [Example 07.04.124.], the negative logarithm of the EC50 (pEC50) was 6.90.

Regarding `CN1CCN(c2cc(N3CCN(C(=O)Cn4nc(-c5ccc(F)cc5)nc4-c4ccc(F)cc4)CC3)ncn2)CC1` [Example 07.08.23.], the pEC50 is 5.80.

Take `COc1ccc(-c2nc(-c3ccc(OC)cc3)n(CC(=O)N3CCN(c4ccc(Cl)cn4)CC3)n2)cc1` [Example 07.02.12.]: the pEC50 is 6.48.

Turning to `COc1cc(N2CCN(C(=O)Cn3nc(-c4ccc(F)c(C)c4)nc3C3CCCCC3)CC2)ncn1` [Example 07.04.065.], the pEC50 is 6.53.

Regarding `CCc1nc(-c2ccc(F)c(C)c2)nn1CC(=O)N1CCN(c2cc(OC)ccn2)CC1` [Example 07.04.094.], the negative logarithm of the EC50 (pEC50) was 6.00.

With `COc1nccc(N2CCN(C(=O)Cn3nc(-c4ccc(F)cc4)nc3-c3ccc(F)cc3)CC2)n1` [Example 07.03.19.], the pEC50 is 6.36.

Take `CN1CCN(CCOc2cc(N3CCN(C(=O)Cn4nc(-c5ccc(F)cc5)nc4-c4ccc(F)cc4)CC3)ncn2)CC1` [Example 07.09.28.]: the negative-log EC50 (pEC50) was 6.28.

Regarding `O=C(Cn1nc(-c2ccc(F)cc2)nc1-c1ccc(F)cc1)N1CCN(c2nccc3ccccc23)CC1` [Example 07.04.006.], the negative logarithm of the EC50 (pEC50) is 6.05.

Turning to `COc1ccc(-c2nc(-c3ccccc3)n(CC(=O)N3CCN(c4ncccn4)CC3)n2)cc1C` [Example 07.10.17.], the pEC50 was 7.37.

As to `O=C(Cn1nc(-c2ccc(F)cc2)nc1-c1ccc(F)cc1)N1CCN(c2cc(NC3CCC3)ncn2)CC1` [Example 07.08.20.], the negative-log EC50 (pEC50) is 6.81.

Turning to `N#Cc1ccc(-c2nc(-c3ccccc3)nn2CC(=O)N2CCN(c3ncccn3)CC2)cc1` [Example 07.10.25.], the pEC50 is 6.19.

`CN(C)c1ccnc(N2CCN(C(=O)Cn3nc(-c4ccc(F)cc4)nc3-c3ccc(F)cc3)CC2)c1` [Example 07.03.17.]: the pEC50 is 6.22.

`CCNc1cc(N2CCN(C(=O)Cn3nc(-c4ccc(F)cc4)nc3-c3ccc(F)cc3)CC2)ncn1` [Example 07.08.12.]: the pEC50 was 6.68.

Regarding `O=C(Cn1nc(-c2ccc(F)cc2)nc1-c1ccc(F)cc1)N1CCN(c2cc(OCC3CCOCC3)ncn2)CC1` [Example 07.09.29.], the pEC50 is 7.36.

For `O=C(Cn1nc(-c2ccc(F)cc2)nc1-c1ccc(F)cc1)N1CCN(c2cc(OC3CCCOC3)ncn2)CC1` (stereo not drawn) [Example 07.09.09.], the negative-log EC50 (pEC50) was 6.96.

On to `COc1ccc(-c2nc(-c3ccccc3)n(CC(=O)N3CCN(c4ncccc4C(F)(F)F)CC3)n2)cc1OC` [Example 07.02.23.], for which the negative logarithm of the EC50 (pEC50) is 5.72.

`COc1ccc(-c2nc(-c3ccc(F)cc3)n(CC(=O)N3CCN(c4ncc(Cl)cn4)CC3)n2)cc1` [Example 07.04.038.]: the negative logarithm of the EC50 (pEC50) was 7.64.

`CCOc1cccc(-c2nc(-c3ccccc3)n(CC(=O)N3CCN(c4ncccn4)CC3)n2)c1` [Example 07.10.04.]: the negative-log EC50 (pEC50) was 7.37.

Turning to `COc1cc(N2CCN(C(=O)Cn3nc(-c4ccccc4)nc3-c3ccc(F)c(C)c3)CC2)ncn1` [Example 07.04.074.], the pEC50 was 6.49.

As for `O=C1CCCN1CCCOc1cc(N2CCN(C(=O)Cn3nc(-c4ccc(F)cc4)nc3-c3ccc(F)cc3)CC2)ncn1` [Example 07.09.27.], the pEC50 was 7.07.

Turning to `COc1cc(N2CCN(C(=O)Cn3nc(-c4ccc(F)c(C)c4)nc3C3CCCC3)CC2)ncn1` [Example 07.04.112.], the negative-log EC50 (pEC50) was 6.51.

Take `Cc1ccnc(N2CCN(C(=O)Cn3nc(-c4ccc(F)cc4)nc3C3CCCC3)CC2)c1` [Example 07.04.048.]: the pEC50 is 6.23.

In the case of `COC1CCN(c2cc(N3CCN(C(=O)Cn4nc(-c5ccc(F)cc5)nc4-c4ccc(F)cc4)CC3)ncn2)CC1` [Example 07.08.06.], the negative-log EC50 (pEC50) was 6.59.

For `CCCc1nc(-c2ccc(OC(F)F)cc2)nn1CC(=O)N1CCN(c2cc(OC)ncn2)CC1` [Example 7.04.169], the negative logarithm of the EC50 (pEC50) was 6.03.

Regarding `Cc1cccc(-c2nc(-c3ccccc3)nn2CC(=O)N2CCN(c3ncccn3)CC2)c1` [Example 07.10.19.], the pEC50 was 6.63.

For `N#Cc1cccc(-c2nc(-c3ccccc3)n(CC(=O)N3CCN(c4ncccn4)CC3)n2)c1` [Example 07.10.06.], the pEC50 is 6.79.

For the compound `O=C(Cn1nc(-c2ccc(F)cc2)nc1-c1ccc(F)cc1)N1CCN(c2cc(F)ccn2)CC1` [Example 07.01.04.], the pEC50 was 7.09.

For `CNc1cc(N2CCN(C(=O)Cn3nc(-c4ccc(F)cc4)nc3-c3ccc(F)cc3)CC2)ncn1` [Example 07.08.24.], the negative logarithm of the EC50 (pEC50) is 6.72.

For the compound `CCCCc1nc(-c2ccc(F)c(C)c2)nn1CC(=O)N1CCN(c2cc(OC)ncn2)CC1` [Example 07.04.119.], the negative-log EC50 (pEC50) is 6.53.

`COc1cc(N2CCN(C(=O)Cn3nc(-c4ccc(OC(F)F)cc4)nc3-c3ccccc3)CC2)ncn1` [Example 7.04.162]: the pEC50 is 7.72.

As to `Cc1cc(C)nc(N2CCN(C(=O)Cn3nc(-c4ccc(F)cc4)nc3-c3ccc(F)cc3)CC2)n1` [Example 07.03.07.], the negative-log EC50 (pEC50) was 6.21.

For `CN(C)c1ccnc(N2CCN(C(=O)Cn3nc(-c4ccc(F)cc4)nc3-c3ccc(F)cc3)CC2)n1` [Example 07.03.16.], the negative-log EC50 (pEC50) is 7.18.

For `COCc1cccc(-c2nc(-c3ccccc3)n(CC(=O)N3CCN(c4ncccn4)CC3)n2)c1` [Example 07.10.08.], the pEC50 was 6.74.

`O=C(Cn1nc(-c2ccc(F)cc2)nc1-c1ccc(F)cc1)N1CCN(c2cc(OCCn3ccnc3)ncn2)CC1` [Example 07.09.17.]: the negative-log EC50 (pEC50) is 6.97.

For `COc1ccc(-c2nc(-c3ccc(OC)cc3)n(CC(=O)N3CCN(c4ccccn4)CC3)n2)cc1` [Example 07.02.10.], the pEC50 was 7.08.

For `Cc1cc(-c2nc(C3CCCC3)n(CC(=O)N3CCN(c4ccccn4)CC3)n2)ccc1F` [Example 07.04.113.], the pEC50 was 6.58.

In the case of `Cc1cc(-c2nc(-c3ccc(F)c(C)c3)n(CC(=O)N3CCN(c4ncccn4)CC3)n2)ccc1F` [Example 07.04.153.], the pEC50 is 7.66.

Consider `COc1cccc(N2CCN(C(=O)Cn3nc(-c4ccc(F)cc4)nc3-c3ccc(F)cc3)CC2)c1` [Example 07.04.014.], for which the negative logarithm of the EC50 (pEC50) was 6.33.

On to `Cc1cc(-c2nc(-c3ccccc3)n(CC(=O)N3CCN(c4ncccn4)CC3)n2)ccc1Br` [Example 07.01.06.], for which the pEC50 is 7.89.

Turning to `O=C(Cn1nc(-c2ccccc2)nc1-c1ccccc1)N1CCN(c2ncccn2)CC1` [Example 07.04.018.], the pEC50 was 6.70.

As usually defined, the pEC50 is the negative decadic logarithm of the EC50, by convention in mol/L.
